Our source for the EC50 values is US9822069B2, “Urea derivative or pharmacologically acceptable salt thereof” (KYORIN PHARMACEUTICAL CO. LTD., priority 2013, dated 2017).

A word on the EC50: it is the concentration at which the effect is half-maximal.

In the test the target is T1, human FPRL1 (Homo sapiens, UniProt P25090).
T1 construct: expressed in transfected cells; host or cells: HEK293 (JCRB9068, NIBIO), transient transfection with pCMV-script vectors using Lipofectamine 2000
T1 sequence (P25090 1-351): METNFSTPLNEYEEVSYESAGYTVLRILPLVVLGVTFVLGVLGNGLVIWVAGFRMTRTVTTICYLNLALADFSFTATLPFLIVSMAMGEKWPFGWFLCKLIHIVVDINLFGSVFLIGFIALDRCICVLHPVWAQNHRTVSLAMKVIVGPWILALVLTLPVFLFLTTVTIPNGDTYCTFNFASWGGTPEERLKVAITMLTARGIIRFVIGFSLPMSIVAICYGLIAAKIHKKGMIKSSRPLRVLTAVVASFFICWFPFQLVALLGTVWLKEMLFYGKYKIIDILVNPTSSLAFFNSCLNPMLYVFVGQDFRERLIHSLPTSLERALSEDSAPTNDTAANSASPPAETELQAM
Description: Measurement test of agonist activity on human FPRL1 (test of calcium mobilization in cell, HEK293 with human FPRL1 and Gα15 expression vectors). The class given is cell-based. As to conditions: calcium mobilization in HEK293 cells with human FPRL1 and Gα15 expression vectors. From the text: Measurement Test of Agonist Activity on Human FPRL1
(1-1) Construction of Human FPRL1 Expression Vector
Human FPRL (SEQ ID NO: 3) was amplified in a PCR reaction from cDNA derived from a monocytic leukemia cell line THP-1 (TIB-202, ATCC) as a template using a forward primer shown in SEQ ID NO: 1, a reverse primer shown in SEQ ID NO: 2, and KOD-plus-ver. 2 (KOD-211, TOYOBO CO., LTD.). The amplified PCR product and pCMV-script vector (212220, STRATAGENE) were digested with Hind III (1060A, Takara Bio Inc.) and XhoI (1094A, Takara Bio Inc.), and the resultant digest was ligated with Ligation high ver. 2 (LGK-201, TOYOBO CO., LTD.). The ligation product was transformed into DH5α (DNA-901, TOYOBO CO., LTD.), cultured on a 100 μg/mL kanamycin-containing LB medium, and purified with HiSpeed Plasmid Maxi Kit (12662, QIAGEN).
(1-2) Construction of Human Gα15 Expression Vector
Human Gα15 (SEQ ID NO: 6) was amplified in a PCR reaction from cDNA derived from a myeloid leukemia cell line HL-60 (CCL-240, ATCC) as a template using a forward primer shown in SEQ ID NO: 4, a reverse primer shown in SEQ ID NO: 5, and KOD-plus-ver. 2. The amplified PCR product and pCMV-script vector were digested with Hind III and XhoI, and the resultant digest was ligated with Ligation high ver. 2. The ligation product was transformed into DH5α, cultured on a 100 μg/mL kanamycin-containing LB medium, and purified with HiSpeed Plasmid Maxi Kit.
(2-1) Method for Culturing and Subculturing HEK293
HEK293 (JCRB9068, NIBIO) was cultured in an incubator at 5% CO2 and 37° C. using DMEM (11885-092, GIBCO) containing 10% FBS and 1× Penicillin-Streptomycin (15140-122, GIBCO). Subculture was carried out as followings: The cells that reached 80 to 90% confluency were washed with PBS(−), separated using 0.25% Trypsin-EDTA (25200-072, GIBCO), centrifuged, re-suspended in a fresh medium, and then seeded in Collagen Type 1 Coated dish (4020-010, IWAKI) at a split ratio of 1:8 (cultured for 3 days).
(2-2) Introduction of Human FPRL1 and Gα15 Expression Vectors
HEK293 that reached 80 to 90% confluency was washed with PBS(−), separated using 0.25% Trypsin-EDTA, centrifuged, and re-suspended in a fresh medium excluding 1× Penicillin-Streptomycin. The cells were inoculated in a Collagen Type 1 coated 6-well plate (4810-010, IWAKI) to 5×10^5 cells/2.5 mL/well and cultured overnight. On the next day, human FPRL1 and Gα15 expression vectors were introduced using Lipofectamine 2000 transfection reagent (11668-019, Life technologies). First, the human FPRL1 and Gα15 expression vectors were diluted with Opti-MEM I Reduced Serum Medium (31985-070, GIBCO) to 2 μg/250 μL/well and Lipofectamine 2000 transfection reagent was diluted with Opti-MEM I Reduced Serum Medium to be 4 μL/250 μL/well. The vectors and reagent were softly diffused, and incubated at room temperature for 5 minutes. The vector solution was mixed with Lipofectamine 2000 transfection reagent in equal amounts. In order to form a composite of the vectors and Lipofectamine 2000 transfection reagent, the mixture was incubated at room temperature for 20 minutes, and added at 500 μL/well to the medium of inoculated cells. The treated cells were cultured for 24 hours, inoculated in Poly-D-Lysine coated 96-well plate (356640, BD Biosciences) at a cell density of 7×10^4 cells/100 μL/well, and cultured for another 24 hours. The resultant cells were used in a measurement test of calcium mobilization in the cells.
(3) Evaluation of Agonist Activity on Human FPRL1 (Test of Calcium Mobilization in Cell)
An appropriate amount of each test compound was first weighed, and dissolved to 10^−2 M by addition of dimethyl sulfoxide (DMSO). […]
In the case of `COc1cc(F)c([C@@H]2CNC(=O)[C@H]2NC(=O)Nc2cc3ccccc3s2)c(F)c1` (relative stereo) [Example 1-35, (−)-1-(benzo[b]thiophen-2-yl)-3-[(3S*,4R*)-4-(2,6-difluoro-4-methoxyphenyl)-2-oxopyrrolidin-3-yl]urea], the EC50 was 0.76 nM.
As for `COc1ccc([C@@H]2[C@H](C)NC(=O)[C@H]2NC(=O)Nc2ccc(F)cc2)cc1` (relative stereo) [Example 1-40, (−)-1-(4-fluorophenyl)-3-[(3S*,4R*,5S*)-4-(4-methoxyphenyl)-5-methyl-2-oxopyrrolidin-3-yl]urea], the EC50 worked out at 1.44 nM.
As for `CNC(=O)C(C)(C)N1C[C@@H](c2ccc(OC)cc2)[C@H](NC(=O)Nc2ccc(F)cc2)C1=O` (relative stereo) [Example 23-1, (−)-2-{(3S*,4R*)-3-[3-(4-Fluorophenyl)ureido]-4-(4-methoxyphenyl)-2-oxopyrrolidin-1-yl}-N,2-dimethylpropionamide], the EC50 was 0.09 nM.
As to `CCCN1C[C@@H](c2c(F)cc(OC)cc2F)[C@H](NC(=O)Nc2ccc(F)cc2)C1=O` (relative stereo) [Example 24-11, (−)-1-[(3S*,4R*)-4-(2,6-difluoro-4-methoxyphenyl)-2-oxo-1-propylpyrrolidin-3-yl]-3-(4-fluorophenyl)urea], the EC50 was found to be 0.06 nM.
`COc1cc(F)c([C@@H]2CN/C(=N\OCCO)[C@H]2NC(=O)Nc2ccc(Cl)nc2)c(F)c1` (single isomer, unassigned) [EXAMPLE 32-14, (−)-1-(6-chloropyridin-3-yl)-3-{(3S*,4R*,Z)-4-(2,6-difluoro-4-methoxyphenyl)-2-[(2-hydroxyethoxy)imino]pyrrolidin-3-yl}urea]: the EC50 stood at 0.82 nM.
The same measure for `O=C(Nc1ccc(F)cc1)N[C@@H]1/C(=N/OCCO)NC[C@H]1c1cc2c(cc1F)OCC2` (single isomer, unassigned) [EXAMPLE 32-19, (−)-1-((3S*,4R*,Z)-4-(6-fluoro-2,3-dihydrobenzofuran-5-yl)-2-[(2-hydroxyethoxy)imino]pyrrolidin-3-yl)-3-(4-fluorophenyl)urea]: 0.13 nM; for `COc1ccc([C@@H]2CN/C(=N\O)[C@H]2NC(=O)Nc2ccc(F)cc2)cc1` (single isomer, unassigned) [EXAMPLE 33-1, (−)-1-(4-Fluorophenyl)-3-[(3S*,4R*,Z)-2-(2-hydroxyimino)-4-(4-methoxyphenyl)pyrrolidin-3-yl]urea]: 1.14 nM; for `O=C(Nc1ccc(F)cc1)N[C@@H]1C(=O)N(CCO)C[C@H]1c1cc2c(cc1F)OCC2` (single isomer, unassigned) [EXAMPLE 24-19, (−)-1-[(3S*,4R*)-4-(6-fluoro-2,3-dihydrobenzofuran-5-yl)-1-(2-hydroxyethyl)-2-oxopyrrolidin-3-yl]-3-(4-fluorophenyl)urea]: 0.33 nM.
On to `COc1ccc([C@@H]2CN(CCO)C(=O)[C@H]2NC(=O)Nc2ccc(Cl)cc2)cc1` (single isomer, unassigned) [Example 15-1A, (−)-trans-1-(4-Chlorophenyl)-3-[1-(2-hydroxyethyl)-4-(4-methoxyphenyl)-2-oxopyrrolidin-3-yl]urea], for which the EC50 is 0.01 nM.
Take `COc1cc(F)c([C@@H]2CN(C)C(=O)[C@H]2NC(=O)Nc2cc3ccccc3s2)c(F)c1` (relative stereo) [Example 24-5, (−)-1-(benzo[b]thiophen-2-yl)-3-[(3S*,4R*)-4-(2,6-difluoro-4-methoxyphenyl)-1-methyl-2-oxopyrrolidin-3-yl]urea]: the EC50 worked out at 1.6 nM.
In the case of `Cc1nnc(CN2C[C@@H](c3cc4c(cc3F)OCC4)[C@H](NC(=O)Nc3ccc(F)cc3)C2=O)o1` (single isomer, unassigned) [EXAMPLE 24-24, (−)-1-{(3S*,4R*)-4-(6-fluoro-2,3-dihydrobenzofuran-5-yl)-1-[(5-methyl-1,3,4-oxadiazol-2-yl)methyl]-2-oxopyrrolidin-3-yl}-3-(4-fluorophenyl)urea], the EC50 stood at 0.46 nM.
The same measure for `COc1ccc(NC(=O)N[C@@H]2C(=O)NC[C@H]2c2c(F)cc(OC)cc2F)cc1` (single isomer, unassigned) [EXAMPLE 1-24, (−)-1-[(3S*,4R*)-4-(2,6-difluoro-4-methoxyphenyl)-2-oxopyrrolidin-3-yl]-3-(4-methoxyphenyl)urea]: 3.2 nM; for `O=C(Nc1cc2ccccc2s1)N[C@@H]1C(=O)NC[C@H]1c1cc2c(cc1F)OCC2` (relative stereo) [Example 1-85, (−)-1-(benzo[b]thiophen-2-yl)-3-[(3S*,4R*)-4-(6-fluoro-2,3-dihydrobenzofuran-5-yl)-2-oxopyrrolidin-3-yl]urea]: 3.5 nM; for `COc1ccc([C@@H]2CN(C(C)(C)CO)C(=O)[C@H]2NC(=O)Nc2ccc(F)cc2)cc1` (relative stereo) [Example 12-4, (−)-1-(4-fluorophenyl)-3-[(3S*,4R*)-1-(1-hydroxy-2-methylpropan-2-yl)-4-(4-methoxyphenyl)-2-oxopyrrolidin-3-yl]urea]: 0.05 nM.
For `CSc1ccc([C@@H]2CNC(=O)[C@H]2NC(=O)Nc2ccc(F)cc2)cc1` (single isomer, unassigned) [EXAMPLE 1-20, (−)-1-(4-fluorophenyl)-3-[(3S*,4R*)-4-(4-methylthiophenyl)-2-oxopyrrolidin-3-yl]urea], the EC50 worked out at 1.75 nM.
Take `COc1c(F)cc([C@@H]2CNC(=O)[C@H]2NC(=O)Nc2ccc(F)cc2)cc1F` (single isomer, unassigned) [EXAMPLE 1-14, (−)-1-[(3S*,4R*)-4-(3,5-difluoro-4-methoxyphenyl)-2-oxopyrrolidin-3-yl]-3-(4-fluorophenyl)urea]: the EC50 turned out to be 4.12 nM.
On to `O=C(Nc1ccc(F)cc1)N[C@@H]1C(=O)NC[C@H]1c1c(F)cc2c(c1F)CCO2` (relative stereo) [Example 1-80, 1-[(3S*,4R*)-4-(4,6-difluoro-2,3-dihydrobenzofuran-5-yl)-2-oxopyrrolidin-3-yl]-3-(4-fluorophenyl)urea], for which the EC50 was determined as 0.69 nM.
For the compound `COc1cc(F)c([C@@H]2CNC(=O)[C@H]2NC(=O)Nc2ccc(F)cc2)cc1F` (single isomer, unassigned) [EXAMPLE 1-13, (−)-1-[(3S*,4R*)-4-(2,5-difluoro-4-methoxyphenyl)-2-oxopyrrolidin-3-yl]-3-(4-fluorophenyl)urea], the EC50 came to 0.15 nM.
The same measure for `COc1cc(F)c([C@@H]2CN(Cc3ncc(C)o3)C(=O)[C@H]2NC(=O)Nc2ccc(F)cc2)c(F)c1` (single isomer, unassigned) [EXAMPLE 24-17, (−)-1-{(3S*,4R*)-4-(2,6-difluoro-4-methoxyphenyl)-1-[(5-methyloxazol-2-yl)methyl]-2-oxopyrrolidin-3-yl}-3-(4-fluorophenyl)urea]: 0.02 nM.
